Data taken from ChEMBL document CHEMBL1154809, “Conventional and microwave assisted synthesis of small molecule based biologically active heterocyclic amidine derivatives” (2010).
The source made the active and inactive calls. No cut-off for these calls is given here.

Legend:
HepG32 = test: Anticancer activity against human […] cells at 10 uM after 48 hrs by sulforhodamine B assay; type: functional, cell-based
HOP-62 = test: Anticancer activity against human HOP62 cells at 10 uM after 48 hrs by sulforhodamine B assay; type: functional, cell-based
DU-145 = test: Anticancer activity against human DU145 cells at 10 uM after 48 hrs by sulforhodamine B assay; type: functional, cell-based
Rattus norvegicus = test: Antiinflammatory activity against carrageenan-induced paw oedema in Charles Foster albino rat at 50 mg/kg, po administered 30 mins before carrageenan challenge measured after 1 to 3 hrs by water plethysmometer; type: functional
A549 = test: Anticancer activity against human A549 cells at 10 uM after 48 hrs by sulforhodamine B assay; type: functional, cell-based
HCT-15 = test: Anticancer activity against human HCT15 cells at 10 uM after 48 hrs by sulforhodamine B assay; type: functional, cell-based
IMR-32 = test: Anticancer activity against human IMR32 cells at 10 uM after 48 hrs by sulforhodamine B assay; type: functional, cell-based

| Structure (SMILES) | Activity (HepG32) | Activity (HOP-62) | Activity (DU-145) | Activity (Rattus norvegicus) | Activity (A549) | Activity (HCT-15) | Activity (IMR-32) |
| --- | --- | --- | --- | --- | --- | --- | --- |
| N/C(=N/CCc1c[nH]c2ccccc12)c1cnccn1 | inactive | inactive | inactive | 23.9% | inactive | inactive | inactive |
| N/C(=N/CCc1c[nH]cn1)c1ccccn1 | inactive | inactive | inactive | 26.8% | inactive | inactive | inactive |
| N/C(=N/CCCn1ccnc1)c1ccccn1 | inactive | inactive | inactive | 18.8% | inactive | inactive | inactive |
| N/C(=N/Cc1ccco1)c1cnccn1 | inactive | inactive | inactive | 36.6% | inactive | inactive | inactive |
| N/C(=N/CCCn1ccnc1)c1cnccn1 | inactive | inactive | inactive | 21.8% | inactive | inactive | inactive |
| N/C(=N/Cc1ccccn1)c1ccncc1 | inactive | inactive | inactive | 33.8% | inactive | inactive | inactive |
| CC(C)Cc1ccc(C(C)C(=O)O)cc1 (stereo unspecified) [IBUPROFEN] | inactive | inactive | inactive | 39% | inactive | inactive | inactive |
| N/C(=N/Cc1ccco1)c1ccncc1 | inactive | inactive | inactive | 15.2% | inactive | inactive | inactive |
| N/C(=N/Cc1ccncc1)c1cnccn1 | inactive | inactive | inactive | 32% | inactive | inactive | inactive |
| N/C(=N/Cc1ccncc1)c1ccncc1 | inactive | inactive | inactive | 31% | inactive | inactive | inactive |
| N/C(=N/CCc1c[nH]c2ccccc12)c1ccncc1 | inactive | inactive | inactive | 28.2% | inactive | inactive | inactive |
| N/C(=N/Cc1ccncc1)c1ccccn1 | inactive | inactive | inactive | 28.2% | inactive | inactive | inactive |
| N/C(=N/CCc1c[nH]cn1)c1cnccn1 | inactive | inactive | inactive | 25.4% | inactive | inactive | inactive |
| N/C(=N/Cc1ccccn1)c1cnccn1 | inactive | inactive | inactive | 0% | inactive | inactive | inactive |
| N/C(=N/Cc1ccco1)c1ccccn1 | inactive | inactive | inactive | 28.7% | inactive | inactive | inactive |
| N/C(=N/CCc1c[nH]cn1)c1ccncc1 | inactive | inactive | inactive | 22.1% | inactive | inactive | inactive |
| N/C(=N/CCCn1ccnc1)c1ccncc1 | inactive | inactive | inactive | 10% | inactive | inactive | inactive |
| N/C(=N/CCc1c[nH]c2ccccc12)c1ccccn1 | inactive | inactive | inactive | 23.6% | inactive | inactive | inactive |
